Two compounds from patent US6545000B1, “[1,2,4]triazolo[1,5-c]pyrimidine derivatives” (Kyowa Hakko Kogyo Co., Ltd., priority 1998, dated 2003) can be followed below.

One data set concerns the target T1, Rat A2A receptor (Rattus norvegicus, UniProt P30543).
T1 construct: from tissue; host or cells: rat corpus striatum membrane preparation
Briefly: Adenosine A2A receptor binding test (3H-CGS 21680 binding). As to conditions: 10^−6 mol/L test compound, rat corpus striatum. The method, then:
The final precipitate was suspended in 50 mmol/L Tris-HCl buffer (containing 10 mmol/L magnesium chloride and 0.02 unit/mg tissue of adenosine deaminase (manufactured by Sigma Co.)) by adding the buffer to the final precipitate so as to give a tissue concentration of 5 mg (wet weight)/mL.
Inhibition ratio (%)={1−(amount of the binding in the presence of the test compound−amount of the non-specific binding)/(amount of the total binding−amount of the non-specific binding)}×100

T1 sequence (P30543 whole entry): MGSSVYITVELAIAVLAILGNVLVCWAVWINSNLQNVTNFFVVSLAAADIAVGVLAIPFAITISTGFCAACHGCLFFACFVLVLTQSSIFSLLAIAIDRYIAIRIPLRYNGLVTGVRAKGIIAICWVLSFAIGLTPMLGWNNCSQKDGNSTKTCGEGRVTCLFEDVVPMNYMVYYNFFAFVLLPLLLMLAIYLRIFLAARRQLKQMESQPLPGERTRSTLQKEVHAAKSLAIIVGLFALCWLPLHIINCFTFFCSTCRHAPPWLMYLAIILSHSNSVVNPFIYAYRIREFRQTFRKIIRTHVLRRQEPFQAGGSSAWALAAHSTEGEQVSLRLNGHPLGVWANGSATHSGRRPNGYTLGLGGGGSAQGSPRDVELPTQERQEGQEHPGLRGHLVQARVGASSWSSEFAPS

`Cc1onc(-c2ccccc2)c1CN1CCN(c2cc3nc(-c4ccco4)nn3c(N)n2)CC1` [Compound 25, 5-Amino-2-(2-furyl)-7-(4-(5-methyl-3-phenylisoxazol-4-ylmethyl)piperazinyl)[1,2,4]triazolo[1,5-c]pyrimidine]: the melting point – broadly, the temperature of the solid-liquid transition – lay within 244 to 246 °C. On Rat A2A receptor, the “Rat A2A receptor inhibition ratio (%)” value came out at 95%.

`COC(C)(C)CCN1CCN(c2cc3nc(-c4ccco4)nn3c(N)n2)CC1` [Compound 11, 5-Amino-2-(2-furyl)-7-(4-(3-methoxy-3-methylbutyl)piperazinyl)[1,2,4]triazolo[1,5-c]pyrimidine] returned a melting point of 194 to 195 °C. Also, the “Rat A2A receptor inhibition ratio (%)” value at Rat A2A receptor is on record as 88%.
